Source: patent US20080119548A1, “Control Of Feeding Behavior By Changing Neuronal Energy Balance” (priority 2004, published 2008)

Legend:
primary cortical neurons = assay: ATP, AMP/ATP ratio and AMPK activity in primary cortical neurons; type: cell-based, Sprague-Dawley rats; details: C75 treatment
Description: Cortices were removed from E17 Sprague-Dawley rats (Harlan, Indianapolis, Ind.), and were dissociated by mild trypsinization and trituration as described by Dawson, et al. J Neurosci 13, 2651-2661 (1993). Cells were plated on poly-D-lysine coated plastic Nunclon culture dishes at a density of 5×10^5 cells/cm^2 in Minimum Essential Media (MEM) supplemented with horse serum, fetal bovine serum, glutamine, and the antibiotics gentamycin and kanamycin. […]
Neurons were lysed on ice using TE buffer (100 mM Tris and 4 mM EDTA) and removed from the plate. ATP levels were then measured in the linear range using the ATP Bioluminescence Kit CLS II (Roche, Indianapolis, Ind.) by following the manufacturer's protocol, and results were read by a Perkin-Elmer Victor^2 1420.
Adenine nucleotide levels in primary cortical neuron lysates were determined by HPLC analysis as described by Stocchi, et al. Anal Biochem 167, 181-190 (1987). […]
AMPK activity was determined by performing SAMS peptide assays as described by Witters, et al., J Biol Chem 267, 2864-2867 (1992). […] Immunoprecipitates were then washed and resuspended in 4× assay buffer and kinase activity was assessed by measurement (for 20 min at 30° C.) of the incorporation of ^32P into the synthetic SAMS peptide substrate, HMRSAMSGLHLVKRR, (Princeton Biomolecules). […]

[1] = tested on: lean, diet-induced obese (DIO), and genetically obese (ob/ob) mice; details: cited from earlier work
liver AMPKα = assay: Western blot of phosphorylated AMPKα in liver; type: in vivo, mice; details: C75 i.p.
Description: (§1) Hypothalami were dissected using as landmarks the optic chiasm rostrally, and the mammillary bodies caudally to a depth of 2 mm. Dissected hypothalamic and liver tissue were immediately frozen in liquid nitrogen. Tissues were homogenized in 200 μl of lysis buffer (50 mM Tris-HCl, pH 7.5, 250 mM sucrose, 5 mM sodium pyrophosphate, 50 mM NaF, 1 mM EDTA, 1 mM EGTA, 1 mM DTT, 0.5 mM PMSF, 0.1 mM benzamidine, 50 μg/ml leupeptin, 50 μg/ml soybean trypsin inhibitor). SDS detergent was added to a final 0.2%, and lysates were boiled for 5 min. After the supernatant was harvested, protein concentration was determined by BCA kit (Bio Rad). Phosphorylation of AMPKα was determined on a 4-15% gradient SDS-polyacrylamide gel using anti-phospho-AMPKα (α1 and α2, Thr172) antibody (1:1000, Cell Signaling). Anti-AMPKαt antibody (α1 and α2, 1:1000, Cell Signaling) was used as a loading control.

[2] = tested on: hypothalamic AMPKα (α1 and α2); assay: Western blot of phosphorylated AMPKα in hypothalamus; type: in vivo, mice; details: for reduction of levels of pAMPKα (α1 and α2) in the hypothalamus vs vehicle: C75 i.c.v. (5 μg or 10 mg)
Description: as §1

pAMPKα = assay: Immunohistochemistry of pAMPKα in the arcuate nucleus; type: in vivo; details: C75-treated (24 hr) mice
Description: Free-floating sections were blocked in PBS containing 5% goat serum, 0.1% BSA, 0.05% Triton-X100, 1 mM NaF for 1 hr at room temperature and incubated with anti-phospho-AMPKα (α1 and α2) antibody (1:100) or anti-phospho-CREB antibody (1:500, Cell Signaling) in PBS containing 1% goat serum, 0.1% BSA, 0.05% Triton-X100, 1 mM NaF overnight at 4° C. Signal was visualized by Vectastain ABC kit (Vector).
Images of in situ hybridization and immunohistochemistry were visualized using an Axiocam HRc digital camera (Carl Zeiss) and images were acquired using Improvision Openlab software, and quantified by NIH Image program (Macro).

## C=C1C(=O)OC(CCCCCCCC)C1C(=O)O (centres unmarked) [C75]
Primary cortical neurons
  AMPK activity in primary cortical neurons: inactivation of AMPK
  ratio of AMP/ATP in primary cortical neurons: decrease in the ratio of AMP/ATP
[1]
  weight loss and anorexia: profound weight loss and anorexia
Liver AMPKα; 30 min after administration
  pAMPKα levels in the liver: little effect
Liver AMPKα; 3 hr
  pAMPKα levels in the liver: increased pAMPKα levels
[2]; 24 hr fasting, then C75 i.p. (10 mg/kg bodyweight), vs RPMI control
  level of hypothalamic pAMPKα in fasted mice: profoundly reduced
[2]; C75 10 mg/kg body weight i.p., 30 min and 3 hr
  levels of pAMPKα in the hypothalamus: significantly reduced
[2]; 30 min
  reduction of levels of pAMPKα (α1 and α2) in the hypothalamus vs vehicle: three
[2]; 3 hr
  reduction of levels of pAMPKα (α1 and α2) in the hypothalamus vs vehicle: six-fold
[2]; i.p. C75 and i.c.v. saline, 30 min after i.c.v. injection
  hypothalamic pAMPKα level: profound decrease
pAMPKα
  pAMPKa-immunoreactivity in the arcuate nucleus, % of control: 12 % of control
